Molecules are shown by their SMILES.

This test addresses T1, FXR (Homo sapiens, UniProt Q96RI1).
T1 construct: 5 μL of 20 nM FXR-LBD Complete Coregulator buffer G; purchased ThermoFisher PV4833
T1 sequence (Q96RI1 262-486 limits assumed): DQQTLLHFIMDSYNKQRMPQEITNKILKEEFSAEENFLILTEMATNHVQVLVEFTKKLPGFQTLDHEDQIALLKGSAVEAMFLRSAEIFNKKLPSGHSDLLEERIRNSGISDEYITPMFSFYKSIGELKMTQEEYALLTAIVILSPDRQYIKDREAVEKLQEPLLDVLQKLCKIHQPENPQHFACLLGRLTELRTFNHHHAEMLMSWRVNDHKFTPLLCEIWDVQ
Put plainly: FXR antagonist screening by TR-FRET (LanthaScreen TR-FRET FXR co-activation assay kit). It is filed as biochemical. The note with it: Table 1.2, FXR antagonistic activity; TR-FRET with CDCA; geometric means of at least two independent runs. Here is the method: FXR activity was evaluated by time-resolved fluorescence resonance energy transfer (TR-FRET) assay, using LanthaScreen™ TR-FRET FXR co-activation assay kit (ThermoFisher, Cat. PV4833). For agonist screening, 10 μL of Complete Coregulator buffer G containing the corresponding concentration of the compound to be tested, 5 μL of 20 nM FXR-LBD Complete Coregulator buffer G, and 5 μL of 2.0 μM Fluorescein-SRC2-2/20 nM Tb-anti-GST antibody Complete Coregulator buffer G were added to each well of a 384-well black plate (Coring) in sequence. […] Three duplicate wells were set up for each compound, with CDCA as the positive compound and DMSO as the solvent control. For antagonist screening, 5 μL of Complete Coregulator buffer G containing the corresponding concentration of the compound to be tested, 5 μL of 20 nM FXR-LBD Complete Coregulator buffer G, 5 μL of 200 μM CDCA FXR-LBD Complete Coregulator buffer G, and 5 μL of 2.0 μM Fluorescein-SRC2-2/20 nM Tb-anti-GST antibody Complete Coregulator buffer G were added to each well of a 384-well black plate (Coring) in sequence and incubated at room temperature for 10 h. Following operations were the same as those for agonist screening
On the technique in general: In TR-FRET formats the signal depends on donor and acceptor labels being close together.

A word on the IC50: it is the concentration needed to halve the response being measured. High values mean a need for much substance, low ones inhibition by little substance. Turning to `Cc1c(C(=O)O)oc2ccc(S(=O)(=O)N(CCc3ccccc3)c3ccccc3N3CCN(C(=O)c4ccc(Br)s4)CC3)cc12` [Example F27-S123, 5-(N-(2-(4-(5-bromothiophene-2-carbonyl)piperazin-1-yl)phenyl)-N-phenethylsulfamoyl)-3-methyl benzofuran-2-carboxylic acid], the half-inhibitory concentration (IC50) lay in the range of 0.1 to 10 µM.

In turn, `Cc1c(C(=O)O)oc2ccc(S(=O)(=O)N(CCc3ccccc3)c3ccccc3N3CCN(C(=O)c4ccc[nH]4)CC3)cc12` [Example F27-S124, 5-(N-(2-(4-(1H-pyrrole-2-carbonyl)piperazin-1-yl)phenyl)-N-phenethylsulfamoyl)-3-methylbenzofuran-2-carboxylic acid] registered an IC50 of 0.1 to 10 µM. Take `Cc1c(C(=O)O)oc2ccc(S(=O)(=O)N(CCc3ccccc3)c3ccccc3N3CCN(C(=O)c4sccc4Br)CC3)cc12` [Example F27-S125, 5-(N-(2-(4-(3-bromothiophene-2-carbonyl)piperazin-1-yl)phenyl)-N-phenethylsulfamoyl)-3-methyl benzofuran-2-carboxylic acid]: the IC50 lay in the range of 0.1 to 10 µM. `Cc1c(C(=O)O)oc2ccc(S(=O)(=O)N(CCc3ccccc3)c3ccccc3N3CCN(C(=O)c4sccc4Cl)CC3)cc12` [Example F27-S126, 5-(N-(2-(4-(3-chlorothiophene-2-carbonyl)piperazin-1-yl)phenyl)-N-phenethylsulfamoyl)-3-methyl benzofuran-2-carboxylic acid] yielded an IC50 of 0.1 to 10 µM.

With `Cc1c(C(=O)O)oc2ccc(S(=O)(=O)N(CCc3ccccc3)c3ccccc3N3CCN(C(=O)c4cc(Br)cs4)CC3)cc12` [Example F27-S127, 5-(N-(2-(4-(4-bromothiophene-2-carbonyl)piperazin-1-yl)phenyl)-N-phenethylsulfamoyl)-3-methyl benzofuran-2-carboxylic acid], the IC50 lay within 0.1 to 10 µM.

As for `Cc1c(C(=O)O)oc2ccc(S(=O)(=O)N(CCc3ccccc3)c3ccccc3N3CCN(C(=O)c4ccc(Cl)s4)CC3)cc12` [Example F27-S128, 5-(N-(2-(4-(5-chlorothiophene-2-carbonyl)piperazin-1-yl)phenyl)-N-phenethylsulfamoyl)-3-methyl benzofuran-2-carboxylic acid], the IC50 lay within 0.1 to 10 µM. `Cc1c(C(=O)O)oc2ccc(S(=O)(=O)N(CCc3ccccc3)c3ccccc3N3CCN(C(=O)c4cncs4)CC3)cc12` [Example F27-S129, 3-methyl-5-(N-phenethyl-N-(2-(4-(thiazole-5-carbonyl)piperazin-1-yl)phenyl)sulfamoyl)benzofuran-2-carboxylic acid] yielded an IC50 of 0.1 to 10 µM.

Take `Cc1c(C(=O)O)oc2ccc(S(=O)(=O)N(CCc3ccccc3)c3ccccc3N3CCN(C(=O)c4cc[nH]n4)CC3)cc12` [Example F27-S130, 5-(N-(2-(4-(1H-pyrazole-3-carbonyl)piperazin-1-yl)phenyl)-N-phenethylsulfamoyl)-3-methylbenzo furan-2-carboxylic acid]: the IC50 is 0.1 to 10 µM. Take `Cc1c(C(=O)O)oc2ccc(S(=O)(=O)N(CCc3ccccc3)c3ccccc3N3CCN(C(=O)c4cnco4)CC3)cc12` [Example F27-S131, 3-methyl-5-(N-(2-(4-(oxazole-5-carbonyl)piperazin-1-yl)phenyl)-N-phenethylsulfamoyl)benzofuran-2-carboxylic acid]: the 50% inhibitory concentration (IC50) lay within 0.1 to 10 µM. `Cc1ccc(C(=O)N2CCN(c3ccccc3N(CCc3ccccc3)S(=O)(=O)c3ccc4oc(C(=O)O)c(C)c4c3)CC2)cc1C` [Example F27-S132, 5-(N-(2-(4-(3,4-dimethylbenzoyl)piperazin-1-yl)phenyl)-N-phenethylsulfamoyl)3-methylbenzofuran-2-carboxylic acid] showed a 50% inhibitory concentration (IC50) of 0.1 to 10 µM. In the case of `COc1cccc(OC)c1C(=O)N1CCN(c2ccccc2N(CCc2ccccc2)S(=O)(=O)c2ccc3oc(C(=O)O)c(C)c3c2)CC1` [Example F27-S133, 5-(N-(2-(4-(2,6-dimethoxybenzoyl)piperazin-1-yl)phenyl)-N-phenethylsulfamoyl)3-methylbenzofuran-2-carboxylic acid], the half-maximal inhibitory concentration (IC50) was 0.1 to 10 µM. In the case of `Cc1c(C(=O)O)oc2ccc(S(=O)(=O)N(CCc3ccccc3)c3ccccc3N3CCN(C(=O)c4ccccc4Cc4ccccc4)CC3)cc12` [Example F27-S134, 5-(N-(2-(4-(2-benzylbenzoyl)piperazin-1-yl)phenyl)-N-phenethylsulfamoyl)3-methylbenzofuran-2-carboxylic acid], the concentration for half-maximal inhibition (IC50) lay within 0.1 to 10 µM. `Cc1cc(C)c(C(=O)N2CCN(c3ccccc3N(CCc3ccccc3)S(=O)(=O)c3ccc4oc(C(=O)O)c(C)c4c3)CC2)c(C)c1` [Example F27-S135, 5-(N-(2-(4-(2,4,6-trimethylbenzoyl)piperazin-1-yl)phenyl)-N-phenethylsulfamoyl)3-methylbenzofuran-2-carboxylic acid] gave an IC50 of 0.1 to 10 µM. `COc1ccccc1C(=O)N1CCN(c2ccccc2N(CCc2ccccc2)S(=O)(=O)c2ccc3oc(C(=O)O)c(C)c3c2)CC1` [Example F27-S136, 5-(N-(2-(4-(2-methoxybenzoyl)piperazin-1-yl)phenyl)-N-phenethylsulfamoyl)3-methylbenzofuran-2-carboxylic acid] registered an IC50 of 0.1 to 10 µM.

In turn, `Cc1ccc(C)c(C(=O)N2CCN(c3ccccc3N(CCc3ccccc3)S(=O)(=O)c3ccc4oc(C(=O)O)c(C)c4c3)CC2)c1` [Example F27-S137, 5-(N-(2-(4-(2,5-Dimethylbenzoyl)piperazin-1-yl)phenyl)-N-phenethylsulfamoyl)3-methylbenzofuran-2-carboxylic acid] gave a half-maximal inhibitory concentration (IC50) of 0.1 to 10 µM. In the case of `Cc1c(C(=O)O)oc2ccc(S(=O)(=O)N(CCc3ccccc3)c3ccccc3N3CCN(C(=O)c4ccc(C#Cc5ccccc5)cc4)CC3)cc12` [Example F27-S138, 5-(N-(2-(4-(4-(phenylethynyl)benzoyl)piperazin-1-yl)phenyl)-N-phenethylsulfamoyl)3-methylbenzofuran-2-carboxylic acid], the IC50 was 0.1 to 10 µM.

In turn, `Cc1ccc(C(=O)N2CCN(c3ccccc3N(CCc3ccccc3)S(=O)(=O)c3ccc4oc(C(=O)O)c(C)c4c3)CC2)s1` [Example F27-S139, 5-(N-(2-(4-(5-methylthiophene-2-formyl)piperazin-1-yl)phenyl)-N-phenethylsulfamoyl)3-methylbenzofuran-2-carboxylic acid] displayed an IC50 of 0.1 to 10 µM. Then `Cc1csc(C(=O)N2CCN(c3ccccc3N(CCc3ccccc3)S(=O)(=O)c3ccc4oc(C(=O)O)c(C)c4c3)CC2)c1` [Example F27-S140, 5-(N-(2-(4-(4-methylthiophene-2-formyl)piperazin-1-yl)phenyl)-N-phenethylsulfamoyl)3-methylbenzofuran-2-carboxylic acid], with 0.1 to 10 µM. `Cc1ccsc1C(=O)N1CCN(c2ccccc2N(CCc2ccccc2)S(=O)(=O)c2ccc3oc(C(=O)O)c(C)c3c2)CC1` [Example F27-S141, 5-(N-(2-(4-(3-methylthiophene-2-formyl)piperazin-1-yl)phenyl)-N-phenethylsulfamoyl)3-methylbenzofuran-2-carboxylic acid] had a concentration for half-maximal inhibition (IC50) of 0.1 to 10 µM. Then `Cc1c(C(=O)O)oc2ccc(S(=O)(=O)N(CCc3ccccc3)c3ccccc3N3CCN(C(=O)c4ncc[nH]4)CC3)cc12` [Example F27-S142, 5-(N-(2-(4-(1H-imidazole-2-formyl)piperazin-1-yl)phenyl)-N-phenethylsulfamoyl)3-methylbenzofuran-2-carboxylic acid], with 0.1 to 10 µM; and `Cc1c(C(=O)O)oc2ccc(S(=O)(=O)N(CCc3ccccc3)c3ccccc3N3CCN(C(=O)C4CCCS4)CC3)cc12` (stereo not drawn) [Example F27-S143, 5-(N-(2-(4-(tetrahydrothiophene-2-formyl)piperazin-1-yl)phenyl)-N-phenethylsulfamoyl)3-methyl benzofuran-2-carboxylic acid], with 0.1 to 10 µM. Then `Cc1c(C(=O)O)oc2ccc(S(=O)(=O)N(CCc3ccccc3)c3ccccc3N3CCN(C(=O)c4c[nH]cn4)CC3)cc12` [Example F27-S144, 5-(N-(2-(4-(1H-imidazole-4-formyl)piperazin-1-yl)phenyl)-N-phenethylsulfamoyl)3-methylbenzofuran-2-carboxylic acid], with 0.1 to 10 µM; and `CCC(CC)C(=O)N1CCN(c2ccccc2N(CCc2ccccc2)S(=O)(=O)c2ccc3oc(C(=O)O)c(C)c3c2)CC1` [Example F27-S145, 5-(N-(2-(4-(2-ethylbutyryl)piperazin-1-yl)phenyl)-N-phenethylsulfamoyl)3-methylbenzofuran-2-carboxylic acid], with 0.1 to 10 µM; and `Cc1c(C(=O)O)oc2ccc(S(=O)(=O)N(CCc3ccccc3)c3ccccc3N3CCN(C(=O)c4ccno4)CC3)cc12` [Example F27-S146, 5-(N-(2-(4-(isoxazole-5-carbonyl)piperazin-1-yl)phenyl)-N-phenethylsulfamoyl)3-methylbenzofuran-2-carboxylic acid], with 0.1 to 10 µM.

The values are drawn from patent US20240239775A1, “FXR REGULATOR, PREPARATION METHOD THEREFOR, PHARMACEUTICAL COMPOSITION THEREOF AND USE THEREOF” (QINGDAO RUIJI MEDICAL TECHNOLOGY CO., LTD., priority 2021, published 2024).
